Laboratory results reported in PMC5564600 (Oncotarget, 2017).

Experiments:
Test in all cases: biochemical
Assay type in all cases: binding
panel of 442 kinases [1] = biological target: T1, panel of 442 kinases (Homo sapiens, UniProt Q8IW41); details: kinase MAPKAPK5; for remaining activity at 1 µM: read-out: % of control at 1 µM
T1 construct: purchased Ambit Biosciences (scanMAXX KINOMEscan)
T1 sequence (Q8IW41 1-473): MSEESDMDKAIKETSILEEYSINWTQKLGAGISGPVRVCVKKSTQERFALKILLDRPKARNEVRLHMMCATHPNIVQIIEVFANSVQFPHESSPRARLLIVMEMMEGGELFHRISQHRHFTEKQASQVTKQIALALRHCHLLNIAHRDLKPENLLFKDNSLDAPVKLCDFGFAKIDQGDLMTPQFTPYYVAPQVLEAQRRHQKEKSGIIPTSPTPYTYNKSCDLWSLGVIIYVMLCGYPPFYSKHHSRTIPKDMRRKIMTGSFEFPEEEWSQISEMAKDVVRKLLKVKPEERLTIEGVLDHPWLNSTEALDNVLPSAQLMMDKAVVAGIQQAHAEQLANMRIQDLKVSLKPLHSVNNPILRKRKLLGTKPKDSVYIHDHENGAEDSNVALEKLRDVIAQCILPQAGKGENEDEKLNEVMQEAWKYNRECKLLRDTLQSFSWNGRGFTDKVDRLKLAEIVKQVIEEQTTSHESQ

panel of 442 kinases [2] = biological target: T2, panel of 442 kinases (Homo sapiens, UniProt Q12866); details: kinase MERTK; for remaining activity at 1 µM: read-out: % of control at 1 µM
T2 construct: purchased Ambit Biosciences (scanMAXX KINOMEscan)
T2 sequence (Q12866 21-999): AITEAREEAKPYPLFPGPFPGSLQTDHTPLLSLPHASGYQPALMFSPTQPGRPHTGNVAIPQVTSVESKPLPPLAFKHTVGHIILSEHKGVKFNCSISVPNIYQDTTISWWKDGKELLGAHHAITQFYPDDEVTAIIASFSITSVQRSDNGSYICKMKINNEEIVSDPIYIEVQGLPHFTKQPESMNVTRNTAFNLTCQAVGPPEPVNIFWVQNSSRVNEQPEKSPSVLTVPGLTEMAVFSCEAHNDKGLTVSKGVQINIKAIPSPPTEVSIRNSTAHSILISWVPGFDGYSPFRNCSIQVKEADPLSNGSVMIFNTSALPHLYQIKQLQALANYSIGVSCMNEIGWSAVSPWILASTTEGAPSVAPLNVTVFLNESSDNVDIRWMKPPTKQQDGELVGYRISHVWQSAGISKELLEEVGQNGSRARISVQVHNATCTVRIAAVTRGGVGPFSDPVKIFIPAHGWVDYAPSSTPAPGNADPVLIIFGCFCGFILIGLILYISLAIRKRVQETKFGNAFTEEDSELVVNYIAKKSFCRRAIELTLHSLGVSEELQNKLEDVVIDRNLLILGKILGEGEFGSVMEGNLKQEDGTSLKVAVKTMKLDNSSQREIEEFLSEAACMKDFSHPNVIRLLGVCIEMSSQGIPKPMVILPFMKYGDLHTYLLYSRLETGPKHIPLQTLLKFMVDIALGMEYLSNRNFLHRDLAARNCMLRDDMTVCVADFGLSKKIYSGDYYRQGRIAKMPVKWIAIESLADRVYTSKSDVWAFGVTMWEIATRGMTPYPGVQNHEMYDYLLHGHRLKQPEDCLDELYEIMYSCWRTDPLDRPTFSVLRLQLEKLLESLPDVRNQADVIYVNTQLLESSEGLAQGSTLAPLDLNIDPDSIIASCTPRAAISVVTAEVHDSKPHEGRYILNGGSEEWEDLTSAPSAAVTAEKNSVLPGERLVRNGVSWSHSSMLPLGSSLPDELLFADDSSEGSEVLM

panel of 442 kinases [3] = biological target: T3, panel of 442 kinases (Homo sapiens, UniProt P07949, M918T); details: kinase RET(M918T); for remaining activity at 1 µM: read-out: RET(M918T) (% of control at 1 µM)
T3 construct: purchased Ambit Biosciences (scanMAXX KINOMEscan)

panel of 442 kinases [4] = biological target: T4, panel of 442 kinases (Homo sapiens, UniProt P54756); details: EPHA5; for remaining activity at 1 µM: read-out: % of control at 1 µM
T4 construct: purchased Ambit Biosciences (scanMAXX KINOMEscan)

panel of 442 kinases [5] = biological target: T5, panel of 442 kinases (Homo sapiens, UniProt Q9UPZ9); details: kinase ICK; for remaining activity at 1 µM: read-out: % of control at 1 µM
T5 construct: purchased Ambit Biosciences (scanMAXX KINOMEscan)
T5 sequence (Q9UPZ9 1-632): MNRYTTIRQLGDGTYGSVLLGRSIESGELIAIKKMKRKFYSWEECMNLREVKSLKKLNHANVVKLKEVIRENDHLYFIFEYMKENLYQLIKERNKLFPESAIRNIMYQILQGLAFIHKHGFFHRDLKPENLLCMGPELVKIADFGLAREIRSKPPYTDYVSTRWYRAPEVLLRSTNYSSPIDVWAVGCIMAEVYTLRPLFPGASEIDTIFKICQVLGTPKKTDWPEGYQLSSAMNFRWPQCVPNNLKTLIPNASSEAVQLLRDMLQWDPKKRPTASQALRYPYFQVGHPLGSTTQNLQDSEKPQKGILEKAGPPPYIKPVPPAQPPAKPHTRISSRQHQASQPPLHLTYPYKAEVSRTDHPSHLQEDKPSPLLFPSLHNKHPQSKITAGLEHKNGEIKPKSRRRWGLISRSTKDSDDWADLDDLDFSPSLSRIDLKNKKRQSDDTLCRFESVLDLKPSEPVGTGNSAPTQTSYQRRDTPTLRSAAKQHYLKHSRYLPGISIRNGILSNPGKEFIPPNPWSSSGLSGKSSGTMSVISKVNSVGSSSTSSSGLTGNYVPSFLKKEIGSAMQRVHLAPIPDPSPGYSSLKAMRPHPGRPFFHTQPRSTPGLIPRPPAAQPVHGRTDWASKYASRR

panel of 442 kinases [6] = biological target: T6, panel of 442 kinases (Homo sapiens, UniProt P78356); details: kinase PIP5K2B; for remaining activity at 1 µM: read-out: % of control at 1 µM
T6 construct: purchased Ambit Biosciences (scanMAXX KINOMEscan)
T6 sequence (P78356 1-416): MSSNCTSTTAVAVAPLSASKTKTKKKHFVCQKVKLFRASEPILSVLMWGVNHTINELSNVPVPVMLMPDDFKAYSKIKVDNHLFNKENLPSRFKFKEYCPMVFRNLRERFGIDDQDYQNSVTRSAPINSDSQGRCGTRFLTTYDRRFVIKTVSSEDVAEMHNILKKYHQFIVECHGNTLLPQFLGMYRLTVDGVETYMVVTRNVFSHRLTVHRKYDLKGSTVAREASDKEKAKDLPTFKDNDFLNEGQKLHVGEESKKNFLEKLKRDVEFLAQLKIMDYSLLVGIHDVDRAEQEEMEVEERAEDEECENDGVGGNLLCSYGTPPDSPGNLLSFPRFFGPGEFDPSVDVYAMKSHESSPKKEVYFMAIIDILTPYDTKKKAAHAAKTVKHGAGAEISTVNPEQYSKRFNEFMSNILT

[7] = 10 µM, read-out: % of control at 10 µM

T4 sequence (P54756 25-1037): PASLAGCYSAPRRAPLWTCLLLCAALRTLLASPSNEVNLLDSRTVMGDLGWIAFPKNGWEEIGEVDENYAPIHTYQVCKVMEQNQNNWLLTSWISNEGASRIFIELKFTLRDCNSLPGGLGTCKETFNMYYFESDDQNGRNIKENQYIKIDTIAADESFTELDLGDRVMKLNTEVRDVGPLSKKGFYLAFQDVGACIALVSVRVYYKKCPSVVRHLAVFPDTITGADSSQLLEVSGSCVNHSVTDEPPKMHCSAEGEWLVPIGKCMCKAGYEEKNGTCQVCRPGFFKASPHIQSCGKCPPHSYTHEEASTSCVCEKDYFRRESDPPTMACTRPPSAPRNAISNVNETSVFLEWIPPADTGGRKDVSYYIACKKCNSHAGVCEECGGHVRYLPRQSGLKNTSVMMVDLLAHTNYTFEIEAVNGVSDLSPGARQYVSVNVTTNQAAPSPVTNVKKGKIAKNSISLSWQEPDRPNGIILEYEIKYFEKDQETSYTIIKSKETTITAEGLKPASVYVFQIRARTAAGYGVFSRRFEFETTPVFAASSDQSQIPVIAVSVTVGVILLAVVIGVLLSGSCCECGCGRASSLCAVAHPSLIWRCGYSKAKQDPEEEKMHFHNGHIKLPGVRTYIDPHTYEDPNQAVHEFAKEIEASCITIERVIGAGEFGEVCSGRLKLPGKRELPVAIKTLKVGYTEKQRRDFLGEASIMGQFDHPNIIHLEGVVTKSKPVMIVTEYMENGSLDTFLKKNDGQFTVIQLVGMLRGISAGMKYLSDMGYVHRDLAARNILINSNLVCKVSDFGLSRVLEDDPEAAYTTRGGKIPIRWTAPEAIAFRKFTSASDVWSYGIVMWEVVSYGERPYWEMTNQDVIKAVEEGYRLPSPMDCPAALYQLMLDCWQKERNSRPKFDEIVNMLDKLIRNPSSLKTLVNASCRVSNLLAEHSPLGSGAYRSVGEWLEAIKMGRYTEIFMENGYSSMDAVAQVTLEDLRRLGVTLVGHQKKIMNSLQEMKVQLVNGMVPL
T3 sequence (P07949 29-1114 M918T): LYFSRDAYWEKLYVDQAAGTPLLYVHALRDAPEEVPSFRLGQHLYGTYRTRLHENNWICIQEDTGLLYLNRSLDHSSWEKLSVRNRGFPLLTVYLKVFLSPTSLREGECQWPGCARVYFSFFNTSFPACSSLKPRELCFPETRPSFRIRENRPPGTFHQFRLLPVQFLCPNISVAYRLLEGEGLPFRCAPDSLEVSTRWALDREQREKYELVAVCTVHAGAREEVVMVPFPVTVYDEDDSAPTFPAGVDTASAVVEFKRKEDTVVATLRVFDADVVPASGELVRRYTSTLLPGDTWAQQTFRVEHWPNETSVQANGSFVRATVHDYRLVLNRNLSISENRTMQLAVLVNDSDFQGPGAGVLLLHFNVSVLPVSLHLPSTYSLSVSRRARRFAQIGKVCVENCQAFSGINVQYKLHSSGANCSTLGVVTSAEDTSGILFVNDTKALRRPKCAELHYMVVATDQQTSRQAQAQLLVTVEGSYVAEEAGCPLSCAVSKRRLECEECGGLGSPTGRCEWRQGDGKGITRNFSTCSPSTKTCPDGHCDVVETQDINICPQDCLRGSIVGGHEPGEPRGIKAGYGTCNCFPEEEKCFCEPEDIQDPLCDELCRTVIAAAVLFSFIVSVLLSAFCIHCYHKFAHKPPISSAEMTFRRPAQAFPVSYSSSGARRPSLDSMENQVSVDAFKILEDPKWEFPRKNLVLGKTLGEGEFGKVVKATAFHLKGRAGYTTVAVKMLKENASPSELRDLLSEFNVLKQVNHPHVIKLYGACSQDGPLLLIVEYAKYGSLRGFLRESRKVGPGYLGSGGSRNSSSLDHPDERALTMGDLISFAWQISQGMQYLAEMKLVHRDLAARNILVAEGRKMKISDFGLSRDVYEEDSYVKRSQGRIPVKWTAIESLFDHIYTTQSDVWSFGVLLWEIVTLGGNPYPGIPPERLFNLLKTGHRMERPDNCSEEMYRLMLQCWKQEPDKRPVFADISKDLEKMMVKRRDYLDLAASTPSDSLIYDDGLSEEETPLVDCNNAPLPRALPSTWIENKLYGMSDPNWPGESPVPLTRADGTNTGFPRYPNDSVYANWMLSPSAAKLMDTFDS

Row | SMILES | remaining activity at 1 µM (panel of 442 kinases [1]) [%] | remaining activity at 10 µM (panel of 442 kinases [1]; [7]) [%] | remaining activity at 1 µM (panel of 442 kinases [2]) [%] | remaining activity at 10 µM (panel of 442 kinases [2]; [7]) [%] | remaining activity at 1 µM (panel of 442 kinases [3]) [%] | remaining activity at 10 µM (panel of 442 kinases [3]; 10 µM, read-out: RET(M918T) (% of control at 10 µM)) [%] | remaining activity at 1 µM (panel of 442 kinases [4]) [%] | remaining activity at 10 µM (panel of 442 kinases [4]; [7]) [%] | remaining activity at 1 µM (panel of 442 kinases [5]) [%] | remaining activity at 10 µM (panel of 442 kinases [5]; [7]) [%] | remaining activity at 1 µM (panel of 442 kinases [6]) [%] | remaining activity at 10 µM (panel of 442 kinases [6]; [7]) [%]
1 | Nc1cc(C(F)(F)F)c(-c2cc(N3CCOCC3)nc(N3CCOCC3)n2)cn1 [Buparlisib] | 100 | 100 | 98 | 95 | 100 | 95 | 100 | 100 | 92 | 100 | 84 | 100
2 | Cn1c(=O)n(-c2ccc(C(C)(C)C#N)cc2)c2c3cc(-c4cnc5ccccc5c4)ccc3ncc21 [Dactolisib, 2-methyl-2-[4-(3-methyl-2-oxo-8-quinolin-3-yl-2,3-dihydroimidazo[4,5-c]quinolin-1-yl)-phenyl] propionitrile] | 100 | – | 80 | – | 100 | – | – | – | 68 | – | 100 | –
3 | COc1ncc(-c2ccc3nccc(-c4ccnnc4)c3c2)cc1NS(=O)(=O)c1ccc(F)cc1F [Omipalisib] | 100 | – | 100 | – | 100 | – | 100 | – | 87 | – | 100 | –
4 | FC(F)c1nc2ccccc2n1-c1nc(N2CCOCC2)nc(N2CCOCC2)n1 [ZSTK474, 2-(difluoromethyl)-1-[4,6-di(4-morpholinyl)-1,3,5-triazin-2-yl]-1H-benzimidazole] | 100 | – | 84 | – | 89 | – | 100 | – | 89 | – | 100 | –
